Data from a melting point compilation (Tetko et al.; mined from patent text by program, amines drawn as free bases though some values may be those of a salt).

| melting point [°C] | Structure (SMILES) |
| --- | --- |
| 106 to 107 | OCc1cnoc1-c1ccc(F)c(Cl)c1 |
| > 250 | CCCc1[nH]c2cc(C(=O)O)ccc2c1C(=O)COC |
| 126 to 129 | CCOc1ccc2nc(Sc3ccc([N+](=O)[O-])c(N)c3)sc2c1 |
| 180 to 190 | CN(C)C(=O)C1CC(c2ccc(-c3ccc(N4C[C@H](Cn5ccnn5)OC4=O)cc3F)cn2)=NO1 (some centres undefined) |
| 124 to 125 | N#CN1CCC(c2nn(-c3ccccc3)c3ccccc23)CC1 |
| 214 to 216 | CC(C)(NC(=O)C1=C(C(=O)Nc2cc(OC3CCCC3)c(Cl)cc2F)CCCC1)c1ccc(Br)cc1 |
| 128 to 132 | O=C(c1ccc(-c2ccccc2)cc1)c1cccnc1Cl |
| 46 | CCCCCCn1ccc(=O)c(OCc2ccccc2)c1C |
| 103 to 105 | COc1ccc([C@H]2CC[C@H](c3ccc(OC)c(OC)c3)S2)cc1OC (relative stereo) |
| 108 to 110 | CC(C)=CCC(CC=C(C)C)(C(=O)NO)S(=O)(=O)c1ccc(C)cc1 |
| 156 to 157 | CC(=O)Oc1cccc(C(Br)C(Br)c2ccccc2)c1 (centres undefined) |
| 140 to 143 | COC(=O)c1occc1CN1C(=O)c2ccccc2C1=O |
| 79 | CCCCc1c2ccccc2c(C=O)c2ccccc12 |
| 120 to 124 | COc1nc(Cl)cc(I)c1C=O |
| 110 | Cc1ccc(S(=O)(=O)NN)cc1 |
| 128 to 130 | CCCCc1cc2cc(O)ccc2c(Oc2ccc(/C=C/C(=O)O)cc2)c1-c1ccccc1 |
| 197 to 198 | FC(F)(F)Oc1ccc(-c2coc3ccc(-c4nnc(S)o4)cc23)cc1 |
| 202 to 204 | O=c1oc2c(Cl)cccc2cc1S(=O)(=O)Nc1ccc(Br)cc1 |
| 183 to 184 | CC(=O)Nc1ccccc1Sc1ccc([N+](=O)[O-])cc1[N+](=O)[O-] |

| melting point [°C] | Structure (SMILES) |
| --- | --- |
| 192 | COc1ccc(CN(C)CCCc2ccc(NC(=O)c3cccc4c(=O)c5cccc([N+](=O)[O-])c5[nH]c34)cc2)cc1OC |
| 113 to 115 | CCOC(=O)c1cc(S(=O)(=O)N2c3ccccc3-c3ccccc3C2C)ccc1OCC (centres undefined) |
| 205 | O=C1NC(=NC2CCCCC2)C(c2ccc(Br)cc2)N1c1ccc2[nH]cnc2c1 (centres undefined) |
| 280 to 281 | CCCn1c(=O)c2[nH]c(/C=C/c3ccc(OC)c(Br)c3)nc2n(CCC)c1=O |
| 93 to 94 | CC1(C)CCCC(C)(C)N1CCO |
| 84 to 86 | Cc1ccc(OC2CN(S(=O)(=O)c3ccc(C)cc3)CCc3ccccc32)cc1 (centres undefined) |
| 129 to 131 | CCCCNC(=O)NC(N)=O |
| 168 to 172 | O=[N+]([O-])c1ccc(C2=NCCCN2)cc1 |
| 72 to 73 | CCOP(=O)(/C=C/c1cn(C)nc1OCc1ccc(OCc2nc(-c3ccco3)oc2C)c(OC)c1)OCC |
| 193 to 196 | C=Cc1ccc2c(c1)c(=O)c(C(=O)NCc1ccc(Cl)cc1)cn2C |
| 109 | CN(CCNC(=NCCSCc1csc(NC(=N)N)n1)NC#N)CCN(Cc1ccc(F)cc1)c1ccccn1 |
| 150 to 152 | COc1ccc(-c2csc(NC(=O)C(=O)OCC(C)c3ccccc3)n2)cc1 (centres undefined) |
| 148 | CCOC(=O)Nc1ccn2cc(C)nc2c1I |
| 172 to 174 | Cc1oc(-c2ccc(Cl)cc2)nc1COc1cccc(/C=C/C(C)n2oc(=O)[nH]c2=O)c1 (centres undefined) |
| 183 to 185 | O=c1oc(OCCBr)c(Cl)c2ccccc12 |
| 123 to 125 | COc1ccc2cccc(C(C#N)O[Si](C)(C)C)c2c1 (centres undefined) |
| 116 to 118 | COc1ccc(-c2ccc(C#N)cc2C(F)(F)F)cc1C=O |
| 203 to 205 | COC(=O)c1ccc(COc2ccc3cc(-c4ccc(-c5ccccc5)[nH]4)ccc3c2)c(C(=O)OC)c1 |

| Structure (SMILES) | melting point [°C] |
| --- | --- |
| CC(C)n1nc(-c2c(-c3ccccc3)nn3ccc(OCCN4CC4)cc23)ccc1=O | 159 to 160 |
| CN1CCN(C(=O)OC2c3ccccc3C(=O)N2c2ccc3ncccc3n2)CC1 (centres undefined) | 170 to 171 |
